Data: patent US9302988B2, “Fluoromethyl-substituted pyrrole carboxamides” (GRÜNENTHAL GMBH, priority 2012, dated 2016)

biological target: T1, Human CaV2.2 channels (Homo sapiens, UniProt Q00975); experiment: Fluorescent assay for CaV2.2 channels using potassium depolarization to induce channel opening (FLIPR, Fluo-4); format: cell-based; settings: 3 μM test compound, 30 mM KCl, HEK293 cells stably expressing human CaV2.2; read-out: %-Inhib (CaV2.2) @3 μM @30 mM KCl
T1 construct: expressed in transfected cells
T1 sequence (Q00975 whole entry): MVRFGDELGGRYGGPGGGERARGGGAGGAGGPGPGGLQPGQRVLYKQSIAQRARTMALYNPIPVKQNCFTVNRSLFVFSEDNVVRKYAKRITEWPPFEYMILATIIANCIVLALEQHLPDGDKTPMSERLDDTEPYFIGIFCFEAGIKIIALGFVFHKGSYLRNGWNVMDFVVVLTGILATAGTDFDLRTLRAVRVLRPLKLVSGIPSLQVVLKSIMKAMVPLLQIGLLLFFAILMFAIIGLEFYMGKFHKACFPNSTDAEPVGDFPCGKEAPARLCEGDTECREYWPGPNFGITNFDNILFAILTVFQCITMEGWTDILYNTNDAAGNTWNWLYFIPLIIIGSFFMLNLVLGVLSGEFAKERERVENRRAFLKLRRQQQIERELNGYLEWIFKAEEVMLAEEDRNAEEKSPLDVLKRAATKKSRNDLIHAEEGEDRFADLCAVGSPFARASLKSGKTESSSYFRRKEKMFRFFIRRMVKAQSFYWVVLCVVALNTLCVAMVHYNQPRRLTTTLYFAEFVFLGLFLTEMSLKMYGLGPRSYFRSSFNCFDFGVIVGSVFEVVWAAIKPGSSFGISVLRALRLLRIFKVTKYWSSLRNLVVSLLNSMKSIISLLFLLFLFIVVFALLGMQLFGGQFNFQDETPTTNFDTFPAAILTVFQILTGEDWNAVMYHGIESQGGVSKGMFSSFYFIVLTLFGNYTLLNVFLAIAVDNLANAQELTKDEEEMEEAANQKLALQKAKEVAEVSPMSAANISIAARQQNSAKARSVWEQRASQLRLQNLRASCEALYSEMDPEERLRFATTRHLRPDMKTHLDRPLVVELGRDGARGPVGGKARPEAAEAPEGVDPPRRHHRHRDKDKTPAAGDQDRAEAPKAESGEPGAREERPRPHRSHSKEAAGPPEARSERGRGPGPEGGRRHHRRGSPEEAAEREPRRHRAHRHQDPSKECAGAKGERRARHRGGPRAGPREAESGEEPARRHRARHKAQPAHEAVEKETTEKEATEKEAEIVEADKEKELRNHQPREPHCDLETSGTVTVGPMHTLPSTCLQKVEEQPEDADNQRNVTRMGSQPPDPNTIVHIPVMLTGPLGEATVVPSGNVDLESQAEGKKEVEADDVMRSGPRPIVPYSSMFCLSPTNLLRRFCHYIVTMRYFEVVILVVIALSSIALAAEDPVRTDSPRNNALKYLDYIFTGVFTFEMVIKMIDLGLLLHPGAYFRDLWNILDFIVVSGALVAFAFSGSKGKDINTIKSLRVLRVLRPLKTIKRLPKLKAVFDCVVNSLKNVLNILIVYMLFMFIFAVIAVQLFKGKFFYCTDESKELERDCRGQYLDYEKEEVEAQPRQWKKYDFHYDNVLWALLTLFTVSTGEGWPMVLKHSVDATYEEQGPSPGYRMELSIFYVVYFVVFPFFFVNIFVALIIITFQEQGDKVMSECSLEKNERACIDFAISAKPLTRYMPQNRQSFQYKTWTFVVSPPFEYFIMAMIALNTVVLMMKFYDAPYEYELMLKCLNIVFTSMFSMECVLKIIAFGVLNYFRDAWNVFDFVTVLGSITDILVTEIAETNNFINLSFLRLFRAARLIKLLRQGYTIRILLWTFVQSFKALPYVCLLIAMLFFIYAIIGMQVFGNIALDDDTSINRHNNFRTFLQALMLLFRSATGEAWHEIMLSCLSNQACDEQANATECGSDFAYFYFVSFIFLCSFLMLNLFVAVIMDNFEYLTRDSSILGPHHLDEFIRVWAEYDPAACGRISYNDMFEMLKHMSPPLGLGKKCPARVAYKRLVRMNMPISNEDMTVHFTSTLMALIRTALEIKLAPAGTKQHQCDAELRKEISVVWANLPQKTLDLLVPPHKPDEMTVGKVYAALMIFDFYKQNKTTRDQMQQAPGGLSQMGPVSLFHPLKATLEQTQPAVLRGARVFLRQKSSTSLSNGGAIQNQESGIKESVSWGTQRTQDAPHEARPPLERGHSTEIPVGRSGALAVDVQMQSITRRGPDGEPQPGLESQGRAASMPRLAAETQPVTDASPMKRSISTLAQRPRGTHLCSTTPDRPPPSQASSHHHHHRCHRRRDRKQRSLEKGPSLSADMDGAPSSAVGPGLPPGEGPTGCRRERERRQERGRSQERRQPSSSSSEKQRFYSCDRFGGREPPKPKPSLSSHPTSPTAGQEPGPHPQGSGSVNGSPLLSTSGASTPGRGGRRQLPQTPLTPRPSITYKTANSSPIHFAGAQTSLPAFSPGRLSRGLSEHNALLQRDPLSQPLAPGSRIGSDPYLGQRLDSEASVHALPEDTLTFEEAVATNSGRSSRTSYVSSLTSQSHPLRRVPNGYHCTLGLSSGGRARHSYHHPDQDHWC
T1 sequence (P54289 25-1103, further chain): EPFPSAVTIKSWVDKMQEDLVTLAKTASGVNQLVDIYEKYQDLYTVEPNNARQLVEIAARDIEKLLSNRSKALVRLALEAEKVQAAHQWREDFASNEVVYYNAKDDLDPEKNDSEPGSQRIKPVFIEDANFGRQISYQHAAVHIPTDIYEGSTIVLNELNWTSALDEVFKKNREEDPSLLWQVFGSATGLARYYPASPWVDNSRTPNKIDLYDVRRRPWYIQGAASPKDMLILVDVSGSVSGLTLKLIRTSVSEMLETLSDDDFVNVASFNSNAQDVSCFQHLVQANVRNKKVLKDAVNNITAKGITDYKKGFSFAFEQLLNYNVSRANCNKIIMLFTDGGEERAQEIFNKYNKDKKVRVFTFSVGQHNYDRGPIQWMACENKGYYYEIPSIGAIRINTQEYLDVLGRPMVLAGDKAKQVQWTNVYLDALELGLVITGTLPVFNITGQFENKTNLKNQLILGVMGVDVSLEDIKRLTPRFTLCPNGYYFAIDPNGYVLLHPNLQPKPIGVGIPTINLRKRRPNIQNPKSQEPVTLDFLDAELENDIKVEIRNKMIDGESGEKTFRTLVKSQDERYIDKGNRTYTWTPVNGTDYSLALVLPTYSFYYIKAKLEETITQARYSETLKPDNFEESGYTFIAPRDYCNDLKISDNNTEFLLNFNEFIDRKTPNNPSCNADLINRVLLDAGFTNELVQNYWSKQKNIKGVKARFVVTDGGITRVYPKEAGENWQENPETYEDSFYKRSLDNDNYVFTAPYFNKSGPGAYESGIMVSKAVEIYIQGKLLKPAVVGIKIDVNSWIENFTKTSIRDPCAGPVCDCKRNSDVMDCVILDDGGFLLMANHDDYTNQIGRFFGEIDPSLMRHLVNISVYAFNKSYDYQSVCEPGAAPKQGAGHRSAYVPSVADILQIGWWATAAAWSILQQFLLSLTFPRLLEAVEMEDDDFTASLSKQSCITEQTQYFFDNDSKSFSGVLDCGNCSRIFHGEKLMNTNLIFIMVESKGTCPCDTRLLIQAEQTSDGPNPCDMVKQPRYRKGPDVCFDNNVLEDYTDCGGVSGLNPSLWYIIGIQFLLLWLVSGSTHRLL
T1 sequence (P54284 whole entry, further chain): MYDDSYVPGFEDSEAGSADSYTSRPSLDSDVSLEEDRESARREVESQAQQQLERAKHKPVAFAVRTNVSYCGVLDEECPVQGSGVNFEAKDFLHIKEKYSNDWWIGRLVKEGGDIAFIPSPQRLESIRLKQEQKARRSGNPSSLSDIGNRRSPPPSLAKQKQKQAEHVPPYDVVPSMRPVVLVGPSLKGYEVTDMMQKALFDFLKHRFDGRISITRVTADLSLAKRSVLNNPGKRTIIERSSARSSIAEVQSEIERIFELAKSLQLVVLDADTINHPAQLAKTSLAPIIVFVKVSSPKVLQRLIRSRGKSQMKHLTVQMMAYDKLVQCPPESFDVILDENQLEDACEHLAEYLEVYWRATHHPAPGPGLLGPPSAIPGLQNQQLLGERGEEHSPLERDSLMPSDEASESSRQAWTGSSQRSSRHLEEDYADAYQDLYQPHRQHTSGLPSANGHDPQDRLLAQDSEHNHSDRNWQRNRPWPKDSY
Procedure, shortened: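 Channel block was read as the baseline-normalized peak Ca²⁺ signal (Fluo-4, 480/535 nm) after a high-KCl depolarizing addition (210 mM KCl buffer). Beforehand, compound sat 15 min at 25 °C on HEK293 cells carrying human CaV2.2, α2δ/β subunits and Kir2.3, in pH 7.4 buffer with 30 mM KCl.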

SMILES | inhibition at 3 µM [%]
Cc1c(-c2ccc(Cl)cc2)c(C(=O)N(C)Cc2ccnc(N(C)C)n2)n(Cc2ccccc2)c1C(F)(F)F [SC-147, 1-Benzyl-3-(4-chlorophenyl)-N-[(2-dimethylamino-pyrimidin-4-yl)-methyl]-N,4-dimethyl-5-(trifluoromethyl)-1H-pyrrole-2-carboxylic acid amide] | 75 to 95
Cc1c(-c2ccc(C(F)(F)F)cc2)c(C(=O)N(C)C2CC2)n(Cc2ccccc2)c1C(F)(F)F [SC-230, 1-Benzyl-N-cyclopropyl-N,4-dimethyl-5-(trifluoromethyl)-3-[4-(trifluoromethyl)-phenyl]-1H-pyrrole-2-carboxylic acid amide] | 40 to 75
CC(C)N(C)C(=O)c1c(-c2ccc(Cl)cc2)cc(C(F)(F)F)n1Cc1ccccc1 [SC-213, 1-Benzyl-3-(4-chlorophenyl)-N-isopropyl-N-methyl-5-(trifluoromethyl)-1H-pyrrole-2-carboxylic acid amide] | > 95
O=C1CN(C(=O)c2c(-c3ccc(Cl)cc3)cc(C(F)(F)F)n2Cc2cccc(Cl)c2)CCN1 [SC-81, 4-[3-(4-Chlorophenyl)-1-[(3-chlorophenyl)-methyl]-5-(trifluoromethyl)-1H-pyrrole-2-carbonyl]-piperazin-2-one] | > 95
O=C1CN(C(=O)c2c(-c3ccc(Cl)cc3F)cc(C(F)(F)F)n2Cc2ccccc2)CCN1 [SC-89, 4-[1-Benzyl-3-(4-chloro-2-fluoro-phenyl)-5-(trifluoromethyl)-1H-pyrrole-2-carbonyl]-piperazin-2-one] | 75 to 95
Cc1c(-c2ccc(Cl)cc2)c(C(=O)N(C)CCS(C)(=O)=O)n(Cc2ccccc2)c1C(F)(F)F [SC-06, 1-Benzyl-3-(4-chlorophenyl)-N,4-dimethyl-N-(2-methylsulfonyl-ethyl)-5-(trifluoromethyl)-1H-pyrrole-2-carboxylic acid amide] | > 95
CCS(=O)(=O)CCN(C)C(=O)c1c(-c2ccc(Cl)cc2)c(C)c(C(F)(F)F)n1Cc1ccccc1 [SC-132, 1-Benzyl-3-(4-chlorophenyl)-N-[2-(ethylsulfonyl)-ethyl]-N,4-dimethyl-5-(trifluoromethyl)-1H-pyrrole-2-carboxylic acid amide] | > 95
Cc1c(-c2ccc(Cl)cc2)c(C(=O)N2CC(F)(F)C2)n(Cc2ccccc2)c1C(F)(F)F [SC-93, [1-Benzyl-3-(4-chlorophenyl)-4-methyl-5-(trifluoromethyl)-1H-pyrrol-2-yl]-(3,3-difluoro-azetidin-1-yl)-methanone] | 75 to 95
CN(CC(C)(C)CN1CCOCC1)C(=O)c1c(-c2ccc(Cl)cc2)cc(C(F)(F)F)n1Cc1ccccc1 [SC-180, 1-Benzyl-3-(4-chlorophenyl)-N-(2,2-dimethyl-3-morpholin-4-yl-propyl)-N-methyl-5-(trifluoromethyl)-1H-pyrrole-2-carboxylic acid amide] | 75 to 95
Cc1c(-c2ccc(Cl)cc2)c(C(=O)N2CCOC(CO)C2)n(Cc2ccccc2)c1C(F)(F)F (centres unmarked) [SC-20, [1-Benzyl-3-(4-chlorophenyl)-4-methyl-5-(trifluoromethyl)-1H-pyrrol-2-yl]-[2-(hydroxymethyl)-morpholin-4-yl]-methanone] | 75 to 95
Cc1c(-c2ccc(Cl)cc2)c(C(=O)N(C)CCNS(C)(=O)=O)n(Cc2ccccc2)c1C(F)(F)F [SC-38, 1-Benzyl-3-(4-chlorophenyl)-N-[2-(methanesulfonamido)-ethyl]-N,4-dimethyl-5-(trifluoromethyl)-1H-pyrrole-2-carboxylic acid amide] | > 95
O=C(c1c(-c2ccc(Cl)cc2)cc(C(F)(F)F)n1Cc1ccccc1)N1CC(O)C1 [SC-72, [1-Benzyl-3-(4-chlorophenyl)-5-(trifluoromethyl)-1H-pyrrol-2-yl]-(3-hydroxy-azetidin-1-yl)-methanone] | 75 to 95
Cc1cc(CN(C)C(=O)c2c(-c3ccc(Cl)cc3)cc(C(F)(F)F)n2Cc2ccccc2)on1 [SC-204, 1-Benzyl-3-(4-chlorophenyl)-N-methyl-N-[(3-methyl-isoxazol-5-yl)-methyl]-5-(trifluoromethyl)-1H-pyrrole-2-carboxylic acid amide] | 75 to 95
Cc1c(-c2ccc(Cl)cc2)c(C(=O)N2CCC(O)CC2)n(Cc2ccccc2)c1C(F)(F)F [SC-17, [1-Benzyl-3-(4-chlorophenyl)-4-methyl-5-(trifluoromethyl)-1H-pyrrol-2-yl]-(4-hydroxy-piperidin-1-yl)-methanone] | > 95
Cc1c(-c2ccc(Cl)cc2)c(C(=O)N(C)CC2(C)COC2)n(Cc2ccccc2)c1C(F)(F)F [SC-60, 1-Benzyl-3-(4-chlorophenyl)-N,4-dimethyl-N-[(3-methyl-oxetan-3-yl)-methyl]-5-(trifluoromethyl)-1H-pyrrole-2-carboxylic acid amide] | > 95
Cc1c(-c2ccc(Cl)c(F)c2)c(C(=O)N(C)CC(C)(C)C)n(Cc2ccccc2)c1C(F)(F)F [SC-250, 1-Benzyl-3-(4-chloro-3-fluoro-phenyl)-N-(2,2-dimethyl-propyl)-N,4-dimethyl-5-(trifluoromethyl)-1H-pyrrole-2-carboxylic acid amide] | 40 to 75
Cc1c(-c2ccc(Cl)cc2F)c(C(=O)N(C)C2CCS(=O)(=O)C2)n(Cc2ccccc2)c1C(F)(F)F (centres unmarked) [SC-171, 1-Benzyl-3-(4-chloro-2-fluoro-phenyl)-N-(1,1-dioxo-thiolan-3-yl)-N,4-dimethyl-5-(trifluoromethyl)-1H-pyrrole-2-carboxylic acid amide] | > 95
Cc1c(-c2ccc(Cl)cc2)c(C(=O)N(C)CC(C)(C)CN(C)CCN2CCCC2)n(Cc2ccccc2)c1C(F)(F)F [SC-139, 1-Benzyl-3-(4-chlorophenyl)-N-[2,2-dimethyl-3-[methyl-(2-pyrrolidin-1-yl-ethyl)-amino]-propyl]-N,4-dimethyl-5-(trifluoromethyl)-1H-pyrrole-2-carboxylic acid amide] | > 95
COC1CCN(C(=O)c2c(-c3ccc(Cl)cc3)c(C)c(C(F)(F)F)n2Cc2ccccc2)CC1 [SC-145, [1-Benzyl-3-(4-chlorophenyl)-4-methyl-5-(trifluoromethyl)-1H-pyrrol-2-yl]-(4-methoxy-piperidin-1-yl)-methanone] | > 95
Cc1c(-c2ccc(OC(F)(F)F)cc2)c(C(=O)N2CC(O)C2)n(Cc2ccccc2)c1C(F)(F)F [SC-239, [1-Benzyl-4-methyl-5-(trifluoromethyl)-3-[4-(trifluoromethyloxy)-phenyl]-1H-pyrrol-2-yl]-(3-hydroxy-azetidin-1-yl)-methanone] | 75 to 95
Cc1c(-c2ccc(Cl)cc2)c(C(=O)N2CC(O)C2)n(Cc2ccccc2)c1C(F)(F)F [SC-05, [1-Benzyl-3-(4-chlorophenyl)-4-methyl-5-(trifluoromethyl)-1H-pyrrol-2-yl]-(3-hydroxy-azetidin-1-yl)-methanone] | 75 to 95
Cc1c(-c2ccc(Cl)cc2)c(C(=O)N(C)CC(C)(C)O)n(Cc2ccccc2)c1C(F)(F)F [SC-54, 1-Benzyl-3-(4-chlorophenyl)-N-(2-hydroxy-2-methyl-propyl)-N,4-dimethyl-5-(trifluoromethyl)-1H-pyrrole-2-carboxylic acid amide] | > 95
Cc1c(-c2ccc(Cl)cc2)c(C(=O)N2CCS(=O)(=O)CC2)n(Cc2ccccc2)c1C(F)(F)F [SC-26, [1-Benzyl-3-(4-chlorophenyl)-4-methyl-5-(trifluoromethyl)-1H-pyrrol-2-yl]-(1,1-dioxo-[1,4]thiazinan-4-yl)-methanone] | 75 to 95
